Test results from ChEMBL document CHEMBL1201862, “PubChem BioAssay data set” (2004).
Calls of active or inactive are those of the source.

What was measured:
[1] = molecular target: T1, Sentrin-specific protease 8 (Homo sapiens, UniProt Q96LD8); assay: inhibition of human SENP8 cleavage activity – biochemical, luminescence, SAR follow-up (AID 504501); type: functional
T1 sequence (Q96LD8 whole entry): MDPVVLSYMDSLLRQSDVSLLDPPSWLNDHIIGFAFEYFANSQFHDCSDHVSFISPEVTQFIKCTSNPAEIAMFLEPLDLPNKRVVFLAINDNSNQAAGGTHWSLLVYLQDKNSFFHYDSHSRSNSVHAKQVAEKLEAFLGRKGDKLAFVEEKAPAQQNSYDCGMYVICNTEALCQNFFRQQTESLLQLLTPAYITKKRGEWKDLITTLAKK

[2] = molecular target: T2, Sentrin-specific protease 6 (Homo sapiens, UniProt Q9GZR1); assay: SAR Analysis of small molecule inhibitors of Sentrin-specific protease 6 (SENP6) using a Luminescent assay. [Related pubchem assays (depositor defined):AID2582, AID2599]; type: functional
T2 sequence (Q9GZR1 whole entry): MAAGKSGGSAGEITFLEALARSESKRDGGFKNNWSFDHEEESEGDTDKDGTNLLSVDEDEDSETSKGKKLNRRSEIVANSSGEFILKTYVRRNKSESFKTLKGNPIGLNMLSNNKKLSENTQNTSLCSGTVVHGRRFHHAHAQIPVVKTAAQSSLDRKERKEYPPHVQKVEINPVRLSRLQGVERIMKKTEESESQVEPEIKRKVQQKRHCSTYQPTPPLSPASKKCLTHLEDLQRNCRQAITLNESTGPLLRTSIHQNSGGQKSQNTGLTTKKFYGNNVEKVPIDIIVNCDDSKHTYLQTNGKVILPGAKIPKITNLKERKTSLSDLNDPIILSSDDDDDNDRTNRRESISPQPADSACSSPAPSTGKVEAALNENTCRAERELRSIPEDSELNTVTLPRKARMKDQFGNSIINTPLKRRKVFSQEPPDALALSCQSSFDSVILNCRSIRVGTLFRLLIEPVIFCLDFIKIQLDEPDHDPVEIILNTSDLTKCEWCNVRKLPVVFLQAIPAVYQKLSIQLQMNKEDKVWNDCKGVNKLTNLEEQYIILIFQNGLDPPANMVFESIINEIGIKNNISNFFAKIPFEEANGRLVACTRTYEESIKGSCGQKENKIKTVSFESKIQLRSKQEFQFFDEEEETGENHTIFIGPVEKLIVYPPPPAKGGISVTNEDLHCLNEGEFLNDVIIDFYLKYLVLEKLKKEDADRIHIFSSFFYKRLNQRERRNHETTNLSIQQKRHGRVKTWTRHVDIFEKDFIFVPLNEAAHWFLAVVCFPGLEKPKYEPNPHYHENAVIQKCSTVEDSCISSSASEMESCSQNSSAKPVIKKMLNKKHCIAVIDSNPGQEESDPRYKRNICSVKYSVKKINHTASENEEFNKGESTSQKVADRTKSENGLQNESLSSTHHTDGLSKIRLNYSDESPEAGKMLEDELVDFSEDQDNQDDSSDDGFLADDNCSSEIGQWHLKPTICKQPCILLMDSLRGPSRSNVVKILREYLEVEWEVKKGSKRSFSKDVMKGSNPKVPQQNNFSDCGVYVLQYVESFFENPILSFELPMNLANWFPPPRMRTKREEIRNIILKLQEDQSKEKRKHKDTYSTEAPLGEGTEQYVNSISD

[3] = molecular target: T1, Sentrin-specific protease 8; type: functional
Caspase-3 [4] = molecular target: T3, Caspase-3 (Homo sapiens, UniProt P42574); type: functional
T3 sequence (P42574 whole entry): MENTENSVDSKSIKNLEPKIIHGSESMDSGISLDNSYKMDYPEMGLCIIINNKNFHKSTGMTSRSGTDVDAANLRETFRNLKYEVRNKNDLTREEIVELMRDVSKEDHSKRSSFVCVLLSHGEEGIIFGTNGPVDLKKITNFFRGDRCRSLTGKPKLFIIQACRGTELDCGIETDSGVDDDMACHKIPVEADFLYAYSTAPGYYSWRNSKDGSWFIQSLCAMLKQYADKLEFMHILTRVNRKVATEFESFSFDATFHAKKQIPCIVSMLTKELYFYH

Caspase-3 [5] = molecular target: T3, Caspase-3; assay: SAR Analysis of small molecule inhibitors of Sentrin-specific proteases (SENPs) using a Caspase-3 Selectivity assay. [Related pubchem assays (depositor defined):AID2540, AID2599, AID434973, AID489001]; type: functional
Cytochrome P450 2C9 = Cytochrome P450 2C9 (Homo sapiens, UniProt P11712)
Cytochrome P450 2C19 = Cytochrome P450 2C19 (Homo sapiens, UniProt P33261); assay: Cytochrome panel assay with activity outcomes. Panel member name: p450-cyp2c19 Compounds with AC50 equal or less than 10 uM are considered active; type: functional; settings: read-out: AC50
[6] = molecular target: T2, Sentrin-specific protease 6; type: functional
[7] = molecular target: T4, Sentrin-specific protease 7 (Homo sapiens, UniProt Q9BQF6); type: functional;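 also: Luminescence-based dose-response confirmation of ultra-high-throughput screening hits, measuring inhibition of SENP7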
T4 sequence (Q9BQF6 whole entry): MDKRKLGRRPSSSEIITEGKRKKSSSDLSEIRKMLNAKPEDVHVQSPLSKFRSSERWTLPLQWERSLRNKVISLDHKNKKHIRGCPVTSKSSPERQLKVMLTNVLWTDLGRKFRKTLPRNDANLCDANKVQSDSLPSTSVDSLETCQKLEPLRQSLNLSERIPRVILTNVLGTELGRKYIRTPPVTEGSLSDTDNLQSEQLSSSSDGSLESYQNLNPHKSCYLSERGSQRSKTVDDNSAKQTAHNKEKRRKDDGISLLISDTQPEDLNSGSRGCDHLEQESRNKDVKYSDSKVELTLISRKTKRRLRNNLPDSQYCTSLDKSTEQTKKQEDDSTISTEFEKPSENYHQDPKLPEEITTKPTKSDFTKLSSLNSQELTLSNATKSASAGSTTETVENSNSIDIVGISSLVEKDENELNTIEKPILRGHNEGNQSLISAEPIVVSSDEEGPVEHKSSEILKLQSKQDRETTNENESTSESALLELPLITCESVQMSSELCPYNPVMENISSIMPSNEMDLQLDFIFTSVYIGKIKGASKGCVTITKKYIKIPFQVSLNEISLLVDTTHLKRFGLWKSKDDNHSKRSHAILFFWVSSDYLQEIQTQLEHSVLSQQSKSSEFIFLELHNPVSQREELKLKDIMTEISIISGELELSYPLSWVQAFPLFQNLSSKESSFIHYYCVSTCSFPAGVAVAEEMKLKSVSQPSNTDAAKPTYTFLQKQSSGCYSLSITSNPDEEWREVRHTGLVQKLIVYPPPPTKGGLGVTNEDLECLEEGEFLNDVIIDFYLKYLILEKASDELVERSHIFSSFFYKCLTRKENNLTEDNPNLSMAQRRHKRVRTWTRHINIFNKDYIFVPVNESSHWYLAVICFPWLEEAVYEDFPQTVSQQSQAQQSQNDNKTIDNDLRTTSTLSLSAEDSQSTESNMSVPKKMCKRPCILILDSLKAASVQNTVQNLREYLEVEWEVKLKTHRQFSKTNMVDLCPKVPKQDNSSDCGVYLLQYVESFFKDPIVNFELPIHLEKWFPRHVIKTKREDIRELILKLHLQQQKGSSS

[8] = molecular target: T4, Sentrin-specific protease 7; assay: inhibition of human SENP7 cleavage activity – biochemical, luminescence, SAR follow-up (AID 504497); type: functional
Cytochrome P450 2D6 = Cytochrome P450 2D6 (Homo sapiens, UniProt P10635);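 also: CYP2D6 member of a cytochrome P450 panel assay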
Insulin-degrading enzyme [9] = molecular target: T5, Insulin-degrading enzyme (Homo sapiens, UniProt P14735); assay: recombinant IDE activation, cell-free – biochemical, fluorescence polarization, counter-screen for IDE activator project, dose response (AID 588681)
T5 sequence (P14735 whole entry): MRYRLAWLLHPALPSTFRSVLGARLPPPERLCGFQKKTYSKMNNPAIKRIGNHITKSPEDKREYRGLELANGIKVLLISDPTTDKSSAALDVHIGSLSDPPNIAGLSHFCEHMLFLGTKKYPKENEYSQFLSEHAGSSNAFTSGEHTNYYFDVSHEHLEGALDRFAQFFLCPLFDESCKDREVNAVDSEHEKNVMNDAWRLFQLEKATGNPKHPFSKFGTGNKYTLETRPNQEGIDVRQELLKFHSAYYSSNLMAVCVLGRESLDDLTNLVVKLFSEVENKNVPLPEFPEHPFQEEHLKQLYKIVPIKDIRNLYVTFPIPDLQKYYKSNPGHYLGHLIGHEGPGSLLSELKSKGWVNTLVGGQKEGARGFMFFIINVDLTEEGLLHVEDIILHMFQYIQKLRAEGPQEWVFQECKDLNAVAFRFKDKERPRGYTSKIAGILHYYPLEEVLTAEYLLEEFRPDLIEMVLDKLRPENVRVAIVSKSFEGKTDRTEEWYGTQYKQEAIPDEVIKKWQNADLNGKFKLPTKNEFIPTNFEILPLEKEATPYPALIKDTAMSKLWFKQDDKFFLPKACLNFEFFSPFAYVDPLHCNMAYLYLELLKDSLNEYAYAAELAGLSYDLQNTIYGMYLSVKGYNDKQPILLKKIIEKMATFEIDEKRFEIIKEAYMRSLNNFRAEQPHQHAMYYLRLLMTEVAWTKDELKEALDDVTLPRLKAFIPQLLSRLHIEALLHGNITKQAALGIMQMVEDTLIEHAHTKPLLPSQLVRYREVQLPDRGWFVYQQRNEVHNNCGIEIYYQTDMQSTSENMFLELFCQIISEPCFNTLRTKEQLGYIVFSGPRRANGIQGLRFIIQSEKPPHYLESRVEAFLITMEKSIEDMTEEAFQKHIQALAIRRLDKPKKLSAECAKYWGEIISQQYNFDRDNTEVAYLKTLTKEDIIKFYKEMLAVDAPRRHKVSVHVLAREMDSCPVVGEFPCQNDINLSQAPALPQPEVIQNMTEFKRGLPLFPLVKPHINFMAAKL

[10] = molecular target: 26S proteasome non-ATPase regulatory subunit 14 (Homo sapiens, UniProt O00487); assay: inhibition of proteasome subunit RPN11 – biochemical, fluorescence polarization, uHTS hits, confirmation (AID 602368); type: functional
Large T antigen = Large T antigen (Simian virus 40, UniProt P03070); type: functional, Betapolyomavirus macacae;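 also: Confirmatory-stage PubChem screen for compounds that inhibit SV40 T antigen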
HEK293 [11] = assay: membrane integrity loss in HEK cells – cell-based, fluorescence, cytotoxicity control for IDE activator project, dose response (AID 588440); type: functional; settings: Homo sapiens;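 also: cytotoxicity by LDH release measuring loss of membrane integrity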
CHO = CHO cell viability loss, potency – luminescence, cytotoxicity control for TLR9-MyD88 binding inhibitor project, dose response (AID 588339); type: functional, cell-based, hamster; settings: Cricetulus griseus;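 also: CHO cells stably coexpressing TLR9 and MyD88 fusions from primary screen; compound exposure lasted 48 hours before viability readout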
HEK293 [12] = assay: optical interference in Abeta FP readout, dose response, artefact control for IDE activator project, biochemical, fluorescence polarization (AID 588442); type: functional, cell-based; settings: Homo sapiens
Streptokinase A = molecular target: T6, Streptokinase A (Streptococcus pyogenes serotype M1, UniProt P10520); assay: viability-normalized secreted streptokinase activity reduction – plasminogen activation absorbance, OD405, dose response (AID 1914); type: functional, Streptococcus pyogenes M1 GAS;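 also: secreted streptokinase activity via plasminogen activation per viability signal from cell pellet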
T6 sequence (P10520 whole entry): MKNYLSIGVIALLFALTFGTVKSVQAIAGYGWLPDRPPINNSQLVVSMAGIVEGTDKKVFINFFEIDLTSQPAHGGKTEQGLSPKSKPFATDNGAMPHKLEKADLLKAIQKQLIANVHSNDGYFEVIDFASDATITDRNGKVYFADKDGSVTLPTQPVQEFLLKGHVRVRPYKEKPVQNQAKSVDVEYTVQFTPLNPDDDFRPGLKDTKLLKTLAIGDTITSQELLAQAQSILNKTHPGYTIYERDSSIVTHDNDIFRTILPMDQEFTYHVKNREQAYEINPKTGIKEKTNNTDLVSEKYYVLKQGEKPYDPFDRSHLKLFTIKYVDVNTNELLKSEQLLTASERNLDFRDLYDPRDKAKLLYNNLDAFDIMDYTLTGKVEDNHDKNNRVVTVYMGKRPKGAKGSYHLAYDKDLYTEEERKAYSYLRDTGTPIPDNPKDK

Prothrombin = Prothrombin (Bos taurus, UniProt P00735); assay: thrombin protease inhibitors – biochemical, fluorescence polarization, uHTS hits, dose response (AID 602369); type: functional
Streptococcus = assay: GAS UMAA2166 growth inhibition – luminescence, BacTiterGlo, counter-screen for streptokinase expression inhibitor project, dose response (AID 1915); type: functional, organism-based;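 also: potency for reduction of bacterial viability or growth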
[13] = system: Streptococcus sp. 'group A'; assay: Streptococcus pyogenes SK(-)GAS viability under kanamycin – luminescence, BacTiterGlo, confirmation, counter-screen for streptokinase expression inhibitor project, dose response (AID 1900); type: functional, organism-based
Insulin-degrading enzyme [14] = molecular target: T5, Insulin-degrading enzyme; assay: cellular IDE activation of Abeta substrate cleavage – fluorescence polarization, HEK cells, dose response (AID 588439); type: functional, cell-based
[15] = molecular target: 72 kDa type IV collagenase (Homo sapiens, UniProt P08253); assay: Dose Response validation of uHTS RPN11 inhibitor hits using a MMP-2 Fluorescence assay.; type: functional
Sequence of 72 kDa type IV collagenase (P08253 whole entry): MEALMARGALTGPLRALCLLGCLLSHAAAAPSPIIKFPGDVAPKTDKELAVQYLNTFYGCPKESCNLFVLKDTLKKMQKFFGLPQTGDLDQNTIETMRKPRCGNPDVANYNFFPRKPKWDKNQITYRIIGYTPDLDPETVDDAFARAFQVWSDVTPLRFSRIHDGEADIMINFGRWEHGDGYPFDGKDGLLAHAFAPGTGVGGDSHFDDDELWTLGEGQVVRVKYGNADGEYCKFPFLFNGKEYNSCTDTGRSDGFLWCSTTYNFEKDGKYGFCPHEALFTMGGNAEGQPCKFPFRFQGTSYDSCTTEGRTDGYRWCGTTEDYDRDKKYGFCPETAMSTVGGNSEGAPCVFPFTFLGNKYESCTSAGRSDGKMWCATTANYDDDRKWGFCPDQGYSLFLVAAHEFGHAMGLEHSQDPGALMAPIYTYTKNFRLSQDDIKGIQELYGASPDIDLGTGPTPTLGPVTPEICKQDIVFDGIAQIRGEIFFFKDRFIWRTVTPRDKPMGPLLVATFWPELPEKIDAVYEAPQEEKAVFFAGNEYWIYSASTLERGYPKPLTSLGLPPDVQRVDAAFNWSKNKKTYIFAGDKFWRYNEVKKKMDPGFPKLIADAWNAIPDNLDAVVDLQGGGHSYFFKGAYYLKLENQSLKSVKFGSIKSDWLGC

Sequence of Cytochrome P450 2D6 (P10635 whole entry): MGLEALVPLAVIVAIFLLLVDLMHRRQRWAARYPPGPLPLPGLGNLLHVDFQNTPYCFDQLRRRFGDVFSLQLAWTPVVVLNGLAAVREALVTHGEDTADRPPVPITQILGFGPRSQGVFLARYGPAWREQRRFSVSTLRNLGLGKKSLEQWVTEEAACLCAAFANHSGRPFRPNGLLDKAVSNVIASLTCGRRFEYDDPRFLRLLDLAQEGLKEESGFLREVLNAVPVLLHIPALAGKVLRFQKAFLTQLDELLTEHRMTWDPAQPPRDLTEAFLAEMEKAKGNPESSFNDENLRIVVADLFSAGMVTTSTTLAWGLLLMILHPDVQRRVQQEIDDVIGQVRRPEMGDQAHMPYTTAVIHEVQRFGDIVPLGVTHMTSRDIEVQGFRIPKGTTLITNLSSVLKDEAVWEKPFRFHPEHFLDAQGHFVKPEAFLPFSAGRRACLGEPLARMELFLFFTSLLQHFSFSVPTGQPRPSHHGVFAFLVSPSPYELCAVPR
Sequence of 26S proteasome non-ATPase regulatory subunit 14 (O00487 whole entry): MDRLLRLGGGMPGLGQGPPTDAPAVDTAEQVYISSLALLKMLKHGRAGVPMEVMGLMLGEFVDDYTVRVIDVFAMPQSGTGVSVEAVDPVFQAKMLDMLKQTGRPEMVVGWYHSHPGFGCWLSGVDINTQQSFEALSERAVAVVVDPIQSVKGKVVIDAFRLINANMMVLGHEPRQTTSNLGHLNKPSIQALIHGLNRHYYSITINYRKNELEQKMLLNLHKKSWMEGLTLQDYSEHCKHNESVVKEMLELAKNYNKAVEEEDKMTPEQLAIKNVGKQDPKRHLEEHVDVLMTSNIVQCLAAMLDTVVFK
Sequence of Cytochrome P450 2C9 (P11712 whole entry): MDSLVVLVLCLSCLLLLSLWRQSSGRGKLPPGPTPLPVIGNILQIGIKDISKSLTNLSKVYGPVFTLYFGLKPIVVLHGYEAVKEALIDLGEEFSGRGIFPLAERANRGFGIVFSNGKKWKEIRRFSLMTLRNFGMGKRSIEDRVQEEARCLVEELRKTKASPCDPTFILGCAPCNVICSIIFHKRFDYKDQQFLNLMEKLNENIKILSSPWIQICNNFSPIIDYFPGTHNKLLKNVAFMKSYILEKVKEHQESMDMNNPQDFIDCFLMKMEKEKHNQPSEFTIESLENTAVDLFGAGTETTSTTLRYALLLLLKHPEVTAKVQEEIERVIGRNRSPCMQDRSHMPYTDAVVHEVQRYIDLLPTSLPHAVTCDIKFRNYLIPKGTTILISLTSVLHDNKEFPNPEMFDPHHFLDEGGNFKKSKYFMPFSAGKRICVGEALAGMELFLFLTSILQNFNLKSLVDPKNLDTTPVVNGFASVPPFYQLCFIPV
Sequence of Cytochrome P450 2C19 (P33261 whole entry): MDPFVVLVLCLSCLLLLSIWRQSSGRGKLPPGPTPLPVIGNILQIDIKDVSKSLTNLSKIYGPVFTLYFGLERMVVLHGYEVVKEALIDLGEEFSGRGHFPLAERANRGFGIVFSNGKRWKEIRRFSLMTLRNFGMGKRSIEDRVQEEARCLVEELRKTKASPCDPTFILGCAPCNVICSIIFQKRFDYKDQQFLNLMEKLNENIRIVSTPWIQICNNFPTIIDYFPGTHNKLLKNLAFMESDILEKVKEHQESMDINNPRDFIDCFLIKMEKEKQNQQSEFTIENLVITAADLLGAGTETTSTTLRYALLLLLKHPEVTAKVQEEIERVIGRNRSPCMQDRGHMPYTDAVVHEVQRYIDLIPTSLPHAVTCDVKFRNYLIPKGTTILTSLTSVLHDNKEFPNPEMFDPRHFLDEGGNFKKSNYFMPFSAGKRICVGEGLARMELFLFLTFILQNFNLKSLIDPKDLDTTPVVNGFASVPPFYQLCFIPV
Sequence of Large T antigen (P03070 whole entry): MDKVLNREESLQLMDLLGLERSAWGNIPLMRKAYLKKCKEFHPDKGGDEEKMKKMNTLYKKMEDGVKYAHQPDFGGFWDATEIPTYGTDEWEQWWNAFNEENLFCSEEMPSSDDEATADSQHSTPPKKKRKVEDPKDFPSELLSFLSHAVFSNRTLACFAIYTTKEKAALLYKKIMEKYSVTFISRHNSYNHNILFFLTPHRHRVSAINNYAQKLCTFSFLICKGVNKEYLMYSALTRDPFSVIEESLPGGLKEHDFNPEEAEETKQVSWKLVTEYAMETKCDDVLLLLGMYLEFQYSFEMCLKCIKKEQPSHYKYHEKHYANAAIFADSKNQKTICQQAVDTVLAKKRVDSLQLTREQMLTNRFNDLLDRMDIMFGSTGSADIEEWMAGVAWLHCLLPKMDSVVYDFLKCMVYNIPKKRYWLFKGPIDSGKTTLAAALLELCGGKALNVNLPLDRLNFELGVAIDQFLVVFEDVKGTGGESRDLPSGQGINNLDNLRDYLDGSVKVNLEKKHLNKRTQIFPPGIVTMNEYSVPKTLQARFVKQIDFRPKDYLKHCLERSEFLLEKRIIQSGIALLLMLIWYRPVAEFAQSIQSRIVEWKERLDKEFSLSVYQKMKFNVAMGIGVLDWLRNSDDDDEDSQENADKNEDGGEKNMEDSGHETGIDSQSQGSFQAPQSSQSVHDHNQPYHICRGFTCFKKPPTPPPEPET

Cc1ccc(/C=C/c2nnc(-c3cccs3)o2)cc1
IC50 [1]: 2.1 µM (active) | IC50 [2]: 2 µM (active) | IC50 [3]: 24.3 µM (active) | IC50 (Caspase-3 [4]): > 100 µM (inactive) | IC50 (Caspase-3 [5]): 2 µM (active) | AC50 (Cytochrome P450 2C9): 10 µM (inconclusive) | AC50 (Cytochrome P450 2C19): 25.1 µM (inconclusive) | IC50 [6]: > 100 µM (inactive) | IC50 [7]: > 100 µM (inactive) | IC50 [8]: 1.7 µM (active) | AC50 (Cytochrome P450 2D6): 25.1 µM (inconclusive)

C#CCOCCOCCOCCNc1nc(N2CCN(C(=O)CCCCCCCCCCNC(=O)[C@H](CCCCN)n3cc(C[C@@H](C)CC)nn3)CC2)nc(N2CCN(C(=O)CCCCCCCCCCNC(=O)[C@H](CCCCN)n3cc(C[C@@H](C)CC)nn3)CC2)n1
EC50 (Insulin-degrading enzyme [9]): 9.71 µM (active) | IC50 [10]: 16.2 µM (active) | IC50 (Large T antigen): 36.5 µM (active) | IC50 (HEK293 [11]): 4.19 µM (active) | IC50 (CHO): 5.63 µM (active) | EC50 (HEK293 [12]): > 54.7 µM (inactive) | EC50 (Streptokinase A): 13.9 µM (active) | IC50 (Prothrombin): 24.5 µM (active) | EC50 (Streptococcus): > 150 µM (not active) | EC50 [13]: 2.86 µM (active) | EC50 (Insulin-degrading enzyme [14]): > 2.03 µM (active) | IC50 [15]: > 100 µM (inactive)
